Laboratory results as given in patent US20100130441A1, “USE OF VITAMIN B12 FOR TREATMENT OF MUCOSAL LESIONS” (priority 2007, published 2010).
Entries after “also recorded” stand apart in the source; their conditions may differ.

Legend:
[1] = test system: pernicious anemia patients presenting with tobacco amblyopia (optic neuropathy); conditions: four patients; parenteral; cyanocobalamin 0.25-1 mg per month, then changed to hydroxocobalamin; cited from earlier work
geriatric patients = conditions: cited from earlier work
[2] = cited from earlier work
[3] = series of up to 12 injections with 5 mg; cited from earlier work
[4] = test system: recurrent aphthous stomatitis (RAS) patients; experiment: Double-blind, placebo-controlled, randomized clinical trial of vitamin B12 in RAS; format: in vivo, human
[5] = test system: recurrent aphthous stomatitis (RAS) patients; conditions: cited from earlier work
[6] = test system: sleep-waking rhythm disorders; conditions: 1.5 to 3 mg/day for 8 weeks, n=13; cited from earlier work
dialysis patients = conditions: cited from earlier work
[7] = test system: recurrent aphthous stomatitis (RAS) patients; experiment: Clinical experience: 15 RAS patients treated with vitamin B12 over four years; format: in vivo, human
Experimental: Fifteen patients suffering from RAS were treated with vitamin B12 in our clinics over a period of four years. In most cases they have presented to the clinic with unrelated symptoms, and the oral ulcers were incidental findings on physical examination. Patients were asked whether oral ulcers were a recurring problem. Before initiating vitamin B12 therapy, a complete blood count was done and plasma vitamin B12 and folic acid levels were assessed by routine procedures.
We used one of two therapeutic regimens: • IM injections of vitamin B12 (1000 mcg weekly for the first month, and then 1000 mcg monthly as maintenance therapy) for patients with serum vitamin B12 level below 100 pg/ml, for patients with peripheral neuropathy or macrocytic anemia, and for patients coming from a low socioeconomic level (in Israel, IM vitamin B12 treatment is cheaper than oral vitamin B12). • 2. One sublingual vitamin B12 tablet (1000 mcg) per day. • No other treatment was given for RAS throughout the treatment and follow-up periods. The follow-up period ranged from 3 months to 4 years.

## cyanocobalamin
[1]
  Effect on haematological and visual abnormalities: restored the haematological, but not the visual abnormalities
Geriatric patients; 1 mg intramuscular weekly for 1 month, then monthly for minimum 6 months
  Cognitive functions: cognitive recovery in some patients
Geriatric patients; 1 mg intramuscular weekly then monthly
  Adverse effects: no adverse effects were reported
[2]; Ellenbogen & Cooper, 1991
  Carcinogenic, mutagenic or teratogenic potential: no reports attributing carcinogenic or mutagenic or teratogenic potential

## hydroxocobalamin
[1]
  Effect on haematological and visual abnormalities: the visual impairment also improved
[3]
  Acne formation (cases): Ten

## vitamin B12 (cobalamin)
[4]; double-blind, placebo-controlled, randomized
  Safety and effectiveness of vitamin B12 therapy for RAS: confirmed the safety and effectiveness; also recorded: established the safety and effectiveness
[4]; pain, number of ulcers, duration of outbreak
  Dependence of patient outcome on initial level of vitamin B12: did not depend on initial level of vitamin B12
[5]; three patients with low serum vitamin B12
  Clinical response of RAS to vitamin B12 administration: rapid improvement and complete recovery within several weeks
[5]; three patients
  Recurrence of RAS at six months' follow up: no recurrence of RAS
[6]
  Adverse effects: no adverse effects recorded
Dialysis patients; 2.5 mg vitamin B12 in multivitamin preparation, 3 years
  Adverse effects: no adverse effects were reported
Dialysis patients; 106 patients, multivitamin preparation with 2.5 mg vitamin B12 at end of each dialysis period during 3 years
  Serum vitamin B12 levels at the end of the treatment period: 4 times greater than normal
[7]; 2 deficient, 3 marginal, 10 normal level patients
  Outcome of treatment by initial vitamin B12 level (deficient or borderline vs normal): no difference in the outcome of treatment
[7]; 15 RAS patients, IM 1000 mcg weekly then monthly or sublingual 1000 mcg per day, mean treatment 10.8 ± 9.7 months, before treatment 1.5 ± 1.2
  Frequency of RAS during treatment (episodes/month), Mean: 0.1 ± 0.3 episodes/month
[7]; 15 RAS patients, before treatment range 0.3-4.0
  Frequency of RAS during treatment (episodes/month), Range: 0-1.0 episodes/month
[7]; IM vitamin B12
  Aphthous ulcers in two non-adherent patients once they received regular IM injections: disappeared completely
[7]; of 15 patients
  Patients reporting pronounced reduction in the frequency and severity of RAS episodes: four
[2]; 1-5 mg every fortnight or month, up to at least 5 years, patients with compromised absorption
  Adverse effects of long-term oral and parenteral supplementation: without any identified adverse effects
[2]; healthy individuals, EC Scientific Committee on Food opinion
  Adverse effects of excess vitamin B12 intake from food or supplements: no adverse effects
[2]; oral or intramuscular dosages between 1-5 mg
  Adverse effects in replacement therapy: no supportive evidence of adverse effects
[2]; up to 1000 mcg/day orally, patients with compromised B12 absorption
  Adverse effects of prolonged oral treatment: adverse effects have not been reported
